This is an account of results in US20140155445A1, “Compounds and Methods for Treating Cancer and Diseases of the Central Nervous System” (Osta Biotechnologies Inc., priority 2007, published 2014).

“Also recorded” adds a separate entry of the source.

For series [1], the system named is PC-3 (human prostate carcinoma). Kind of series: Prostate carcinoma model PC-3 in SCID mice.
Description: • Species and strain: Mouse (Mus musculus); female SCID (MDA231 and OVCAR3), male SCID (PC-3, HCT116); male CD57 B16 mice (BL16-BL6) • Age: 6-8 weeks old. • Supplier: Charles River Laboratories, Inc., St-Constant, Quebec, Canada. • Acclimation: Mice were acclimated to laboratory conditions for approximately 1 week prior to tumor cell inoculation. • Identification: Mice were identified by ear punch combination. • Housing: Mice were housed in groups of 3-5 in a designated animal facility with a temperature of 22° C., a relative humidity of 40-50%, and a 12 hr light/dark cycle.
PC-3 (human prostate carcinoma). These cells were originally received from the ATCC. Early passage cells (tested free of mycoplasma) were grown to 60% confluence in DMEM medium supplemented with 10% fetal bovine serum, and antibiotics. Cell harvesting was performed using trypsin-EDTA solution.
Exponentially growing cells were harvested using trypsin-EDTA solution. […] Cell viability was confirmed by trypan blue staining. […] One to 2 millions cells suspended in 0.1 mL phosphate buffer solution was implanted into the mammary fat pad (MCF7) or subcutaneously into the axillary region of the right flank of recipient SCID mice. All animals were inoculated at the same site.
Mice were subjected to general examination on daily basis. […] Control groups received the vehicle alone. Chemotherapy drugs were also given by intraperitoneal route according to the schedule described below.
Primary tumor growth was monitored every second to fourth day using calipers. Relative tumor volume (cm^3) was determined by the formula:
Body weights were monitored every third to fifth day. Animals experiencing signs of discomfort were sacrificed immediately (in some cases they were replaced by spared mice). […] Mice were sacrificed by cervical dislocation and immediately subjected to full autopsy.
The subject of series [2] is human metastatic prostate cancer PC-3M cells. The experiment in a line: Orthotopic PC-3M prostate cancer model in SCID mice. Type of series: in vivo. An excerpt: PC-3 & PC-3M (human prostate carcinoma). The PC-3 human prostate cancer cell line was originally obtained from the American Type Culture Collection (Rockville, Md.). The PC-3M cell line was kindly provided by Dr. Issac (MD Anderson Cancer Center). This cell variant was derived from a liver metastasis produced by the parental PC-3 cells growing in the spleen of a nude mouse [Pettaway C A, Pathak S, Greene G, et al. Selection of highly metastatic variants of different human prostate carcinomas utilizing orthotopic implantation in nude mice.
Male SCID mice were housed in laminar flow under specific pathogen-free conditions and used at 8-9 weeks of age. Animals were maintained in the LDI facilities approved by the Laboratory Animal Care in accordance with current Canadian regulations and standards for the use of animals for research.
Mice were anesthesized with isofluorane given by inhalation and placed in a supine position. […] A low midline incision was made and the prostate was exposed. Fifty microliters of HBSS containing 1×10^6 cells was injected into a lateral lobe of the prostate. The wound was closed with surgical metal clips in two layers, the muscle layer first and then the skin layer using stainless steel clips (autoclips: 9 mm; Clay Adams Inc., Parsippany, N.J.). […] Control groups received the vehicle alone. Taxol™ was given either ip or iv as indicated.
Primary tumors in the prostate were excised, measured, and weighed. When applicable, immunohistochemistry and H&E staining were conducted on one part of the tumor, fixed in formalin and embedded in paraffin or OCT compound (Miles Inc., Elkhart, Ind.); the later was rapidly frozen in liquid nitrogen, and stored at −70° C. Macroscopically enlarged regional lymph nodes were harvested and the presence of metastatic disease was confirmed by histology.
The in vivo data was analyzed using the Mann-Whitney U test.

In series [3] the test system is SKMEL-V+ cells. Kind of series: Cell proliferation / survival, MTT assay, SKMEL-V+ cells. In kind it is cell-based, human. The following applies: 96 hours; for % cell survival: 6.25 μM to 100 μM. Here is the method:
Exponentially growing SKMEL-V+ cells (1×10^3) were seeded in 96-well plates in complete medium. […] Cell survival was evaluated 96 hours later using the MTT metabolic assay (Benlimame N, He Q, Jie S, et al. FAK signaling is critical for ErbB-2/ErbB-3 receptor cooperation for oncogenic transformation and invasion. J Cell Biol 2005; 171: 505-16).
In general terms: Tetrazolium dyes change colour on reduction, which living cells bring about.

The subject of series [4] is HCT-116 colorectal carcinoma. The experiment in a line: Colorectal carcinoma model HCT-116 in SCID mice. Type of series: in vivo, human. An excerpt: Control groups received the vehicle alone.
Series [5] concerns the target T1, human HO-1 (hHO-1) in transfected astroglia (Homo sapiens, UniProt P09601).
T1 construct: containing the entire protein-coding region (866 bp) of the human HO-1 gene; expressed in transfected cells; host or cells: primary rat astrocytes, transient transfection with pcDNA3.1/Zeo.CMV.Flag.hHO-1 (Lipofectamine 2000)
T1 sequence (P09601 1-288): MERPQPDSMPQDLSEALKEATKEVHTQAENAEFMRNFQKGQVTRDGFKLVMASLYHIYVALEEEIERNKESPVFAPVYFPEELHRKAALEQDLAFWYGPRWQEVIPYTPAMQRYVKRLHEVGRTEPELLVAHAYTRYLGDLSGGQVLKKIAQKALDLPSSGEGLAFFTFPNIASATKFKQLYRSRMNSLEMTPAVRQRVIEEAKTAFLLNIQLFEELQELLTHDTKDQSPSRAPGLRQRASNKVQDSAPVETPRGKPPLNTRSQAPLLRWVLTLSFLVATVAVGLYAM
Kind of series: HO enzyme activity (bilirubin formation) in hHO-1-transfected astrocytes. In kind it is cell-based. The procedure: (§1) Upon reaching >90% confluence, 1×10^6 cells were transiently transfected with 4.0 μg of plasmid DNA-Lipofectamine 2000 complex using Lipofectamine 2000 method according to manufacturer instructions (Invitrogen). […] 12 μg of plasmid DNA and 16 μl of Lipofectamine 2000 reagent were diluted in 1.5 mL opti-MEM I reduced serum medium and incubated for 5 minutes at room temperature with gentle mixing. The two solutions were combined, incubated at room temperature for 20 minutes to promote formation of DNA-lipid complexes and administered to the cells. 2 mL opti-MEM I reduced serum medium was added to the flasks to ensure coverage of the monolayer by the transfection mixture. Following incubation for 6 hours at 37° C., the transfection mixture was replaced with 10 mL of complete media without antibiotics.
A young adult male rat was gas-anesthetized, laid on ice and systemically perfused with ice-cold 0.9% NaCl to get rid of all blood from liver. The liver was then excised on ice and transferred to a cold room (4° C.) and cut into small pieces in cold 0.9% NaCl (3 mL per gram of tissue) with surgical scissors in and placed in a 50 mL tube. The tissue chunks were homogenized with an electric tissue homogenizer and centrifuged at 150×g for […] at 4° C. Similarly, all of the following steps, including centrifugations, were performed at 4° C. The supernatant was centrifuged at 18,000×g for 10 min and further at 30,000×g for 30 min. A saturated solution of ammonium sulfate was added to the 30,000×g supernatant to attain 40% saturation and placed on ice for 10 min. The mixture was centrifuged at 10,000×g for 10 min and supernatant was recovered and transferred to a fresh tube. Sixty percent of saturation was achieved by adding saturation solution of ammonium sulfate to the supernatant. The mixed solution was centrifuged again at 10,000×g for 10 min and […]. […] The dialysate was centrifuged at 10,000 g for 10 min and pellet was discarded. The protein concentration of the supernatant was measured with Bradford reagent (BioRad laboratories, Hercules, Calif.) and adjusted to 10 mg/mL with 0.01 M KPO4, pH7.4. The supernatant was aliquoted and stored at −20° C. ready for use.
Cytosol extracts were prepared for HO activity measurement by the method of Ryter (Ryter, Kvam, Tyrrell 2000). Astroglial monolayers were washed with ice-cold PBS and scraped in ice-cold PBS-EDTA (1 mM, pH 8.0) containing 50 μg/mL protease inhibitor (AEBSF), centrifuged at 150×g at 4° C. and resuspended in 20 mM Tris-HCl (pH 7.4) and 0.25 M sucrose containing protease inhibitors. Cell suspensions were sonicated on ice 2×15 s at 20 W and centrifuged for 20 min at 4° C. at 15,000×g. Protein concentration of supernatant was measured with Bradford method. […] Reaction mixtures were incubated at 37° C. in the dark for 60 min with hard vortex every 10 min. […] HO activity was calculated as nanomoles bilirubin per milligram protein per min, assuming an extinction coefficient of 40/mM/cm in chloroform (see FIG. 8).
Cells were rinsed twice with cold PBS (pH 7.4) and scraped in iced lysis buffer consisting of 1% Nonidet P-40, 50 mM Tris.HCl (pH 7.4), 30 mM NaCl, 25 mM β-glycerophosphate, 10 mM EDTA, 10 mM EGTA, 1 mM MgCl2, and protease inhibitors (10 mM sodium fluoride, 50 μg/mL AEBBSF, 5 μg/mL leupeptin, 5 μg/mL pepstatin, 5 μg/mL aprotinin). […] Protein contents were determined using the Bradford method. […]

The test system of series [6] is hHO-1 transfected primary rat astroglial cultures. Kind of series: Protein carbonyl ELISA in hHO-1-transfected primary rat astroglia (whole-cell and mitochondrial compartments). Type of series: cell-based. The procedure:
Cells were grown in Ham's F12 and high glucose DMEM (50:50 v/v) supplemented with 10 mM HEPES, 5% heat-inactivated horse serum, 5% heat-inactivated fetal bovine serum, and penicillin-streptomycin (50 U/mL and 50 μg/mL, respectively).
as §1
The cells were sonicated (Sonics & Materials, Danbury, Conn.) at a power level of 50 for 3×20 s in a cooled water bath. […] Whole-cell and mitochondrial preparations were assayed for protein carbonyls as described below.
Protein carbonyls were reacted with 2,4-dinitrophenylhydrazine (DNP) and the hydrazone adducts were detected with anti-DNP antisera. Quantification was achieved by comparison with oxidized BSA standards. Oxidized (carbonylated) BSA was prepared by reacting natural BSA (at 50 mg/mL in PBS) with hypochlorous acid (5 mM) for 1 h at 37° C., followed by overnight dialysis against PBS at 4° C. […] The pellet was resuspended in 2 mL of same buffer, sonicated on ice 2×15 s at 20 W and centrifuged for 20 min at 4° C. at 1,303×g. Protein concentration of supernatant was measured with the RC DC protein assay based on the Lowry protocol (Bio-Rad Laboratories, Hercules, Calif.). All samples were adjusted to 4.0 mg protein/mL. […] Five microliters aliquots of each reaction mixture were mixed with 1 mL PBS and 200 μL replicates were added per well to 96-well immunoplates and incubated overnight at 4° C. After washing with PBS, nonspecific binding sites were blocked with 0.1% Tween 20 in PBS. […] A 6-point standard curve of reduced and oxidized BSA was generated for each plate analyzed. Specific absorbance for each sample was calculated by subtracting basal absorbance of the DNP reagent from the total absorbance.
On the technique in general: In an ELISA, binding on a coated surface is turned into a signal by an enzyme label.

Where [7] appears, read: QC-56 30 mg/kg intraperitoneally daily for 12 days, Taxol 10 mg/kg i.p. 3 cycles.

Consider `CC(=O)O[C@H]1C(=O)[C@@]2(C)[C@H]([C@H](OC(=O)c3ccccc3)[C@]3(O)C[C@H](OC(=O)[C@H](O)[C@@H](NC(=O)c4ccccc4)c4ccccc4)C(C)=C1C3(C)C)[C@]1(OC(C)=O)CO[C@@H]1C[C@@H]2O` [Taxol™, paclitaxel, reference compound], for which the “Body Weights (g) d8 (mean + SE)” value in series [1] (PC-3 mice, treatment day 8) came out at 22.40 ± 7.92 g. For the same compound, the “Body Weights (g) d42 (mean + SE)” value in series [1] (PC-3 mice, treatment day 42) turned out to be 17.70 ± 6.25 g. For the same compound, the “inhibition of tumor growth compared to vehicle alone” value in series [1] (QC-56 60 mg/kg/ip, Taxol 10 mg/kg) is listed as about 28%. Further, in series [2] (setting [7]), the “inhibition of tumor growth” value stood at 64%. For the same compound, the “reduction in microscopic lymph node metastases” value came to 82% in series [2] (setting [7]) and 47% in series [2] (QC-56 40 mg/kg daily for 24 days, Taxol 10 mg/kg, 4 cycles). In addition, the “inhibition of tumor growth compared to untreated mice” value in series [2] (QC-56 40 mg/kg daily for 24 days, Taxol 10 mg/kg, 4 cycles, 3 administrations per cycle) was determined as 45%.
For `Cl.FC(F)(F)c1ccc(CCCCn2ccnc2)cc1` [QC-234, 1-[4-(4-(Trifluoromethyl)phenyl)butyl]-1H-imidazole hydrochloride], the “% cell survival” value in series [3] was “Dose dependent decrease in cell survival”.
With `O=c1[nH]cc(F)c(=O)[nH]1` [5-FU, reference compound], the mouse mortality entry in series [4] (60 mg/kg, HCT-116 model (FIG. 25)) is recorded as “induced mortality”. Further, the “reduction of tumor volume at the time of sacrifice compared to control” value in series [4] (QC-56 60 mg/kg/ip, 5-FU 60 mg/kg/ip reduced to 40 mg/kg) is “similar”.
As for `Cl.FC[C@@H]1CO[C@@](CCc2ccc(Cl)cc2)(Cn2ccnc2)O1` [QC-47, (2R,4S)-2-[2-(4-Chlorophenyl)ethyl]-2-[(1H-imidazol-1-yl)methyl]-4-(fluoromethyl)-1,3-dioxolane hydrochloride], the “HO activity in HO-1-transfected astroglia” value in series [5] (6.5 μM, 18 h, hHO-1-transfected cells, hydrochloride) was “suppressed to levels akin to those of non-transfected and sham-transfected controls; also recorded: significantly attenuated; also recorded: significantly decreased”. For the same compound, the “expression level of flag-tagged HO-1 protein” value in series [5] (6.5 μM, transiently transfected cells) is “without affecting the expression level of flag-tagged HO-1 protein”. This compound yielded an IC50 in series [5] (concentration of QC-47 used on HO-1-transfected astroglia, stated as IC50) of 6.5 µM. For the same compound, the “oxidative protein damage (protein carbonyls) accruing from hHO-1 transfection” value in series [6] (6.5 μM) is “significantly attenuated”. For the same compound, the “dose dependence of attenuation of oxidative protein damage” value in series [6] (transiently transfected rat astroglia, hydrochloride) is “significant dose dependant attenuations; also recorded: in a dose dependent manner significantly decreased”.
With `OC(Cn1ccnc1)c1ccc(-c2ccc(Br)cc2)cc1` (racemic) [QC-304, (±)-1-(4′-bromo-biphenyl-4-yl)-2-imidazol-1-yl-ethanol], the “% cell survival” value in series [3] is “no significant change in cell survival”. Also, the “potency in comparison with the other HO-1 inhibitors” value in series [3] (6.25 μM) is reported as “most potent”.

The IC50 is the concentration that inhibits the measured activity by half. Low readings indicate higher potency, high ones lower potency.
